{"source": "patent US20260345624A1", "about": "“TREATMENT OF PROSTATE CANCER BY PROMOTING PDE4D7” (KONINKLIJKE PHILIPS N.V., priority 2022, published 2026)", "key": {"LNCaP WT cells": {"test_system": "LNCaP WT cells", "assay": "xCELLigence real-time proliferation of WT LNCaP cells", "format": "cell-based", "settings": "for WT LNCaP growth, strongest effect: enzalutamide 1 μM and above; for WT LNCaP cell proliferation: enzalutamide 0.1-30 μM, all concentrations tested", "method": "(§1) xCELLigence Real-Time Cell Analysis (RTCA)\n(§2) Real-time cell growth was analysed using the xCELLigence RTCA system (Agilent), which measures real-time cell adhesion across gold microelectrode biosensors on 96 well electronic plates (E-plates) within a 37 °C incubator with 5% CO2. Cellular adhesion influences electrical impedance which is converted into the cell index (CI) via RTCA software. Initial background measurements were recorded with 100 μL RPMI 1640 medium, followed by addition of 100 μL LNCaP cell suspension (10,000 cells/wells) for measurement of CI over time. Approximately 24 h after seeding, cells were treated with specified concentrations of drugs. Negative controls containing either 0.1% DMSO or untreated cells were also included. CI was transformed to normalised CI via the RTCA software to timepoint of treatment."}, "[1]": {"test_system": "PDE4D7-knockdown LNCaP P1 cells", "assay": "xCELLigence real-time proliferation of PDE4D7-knockdown P1 LNCaP cells", "format": "cell-based", "from_the_text": "Stable shRNA-mediated lentiviral transduced LNCaP cell lines were generated by AMSBIO (Table 1). Briefly, shRNA-PDE4D7 was cloned into a lentivector and delivered into LNCaP clone FGC cells (ATCC) via lentivirus (MOI=10). Cells were maintained in puromycin-supplemented medium prior to selection of stably transduced cells. A stable shRNA-PDE4D7 LNCaP cell line was then re-transduced with lentivirus delivering PDE4D7 to generate a re-introduced cell line. Scrambled-shRNA was used as a control. All cells were cultured in RPMI 1640 medium (Gibco D), supplemented with 10% (v/v) foetal bovine serum, 1% (v/v) L-Glutamine and 1% (v/v) penicillin/streptomycin, and stored within a 37 °C incubator with 5% CO2.\nas §1, §2"}, "P1-TET4D7 LNCaP cells": {"test_system": "P1-TET4D7 LNCaP cells", "assay": "Real-time growth of P1 LNCaP cells with Tet-On inducible PDE4D7", "format": "cell-based", "settings": "enzalutamide 10 μM, Tet-On doxycycline-induced PDE4D7", "method": "as §1, §2\nPDE4D7 (GenBank ID AF536976) sequence was first subcloned into lentivirus vectors with CMV (LVR-1001-pLV-CMV-PGK-Puro) and then into Tet-On inducible vector pLV-tet-on-3G-P2A-Puro, LNCaP-shRNA P1 cells were maintained in RPMI1640 medium supplemented with 10% (v/v) foetal bovine serum, 1% (v/v) L-Glutamine and 1% (v/v) penicillin/streptomycin, and infected with Tet-On inducible lentivirus at MOI=5-10 in the presence of 8 μg/ml polybrene. […]"}, "PCa": {"test_system": "PCa", "settings": "He et al., 2019; cited from earlier work"}, "cAMP production": {"test_system": "cAMP production", "settings": "Miller et al., 2013; cited from earlier work"}}, "note": "“Also recorded” adds a separate entry of the source.", "data": [{"molecule": "CNC(=O)c1ccc(N2C(=S)N(c3ccc(C#N)c(C(F)(F)F)c3)C(=O)C2(C)C)cc1F", "note": "[enzalutamide]", "values": [{"measurement": "WT LNCaP growth, strongest effect", "setting": "LNCaP WT cells", "value": "least growth"}, {"measurement": "WT LNCaP growth, strongest effect", "setting": "LNCaP WT cells; listed as Enzalutamide", "value": "most profound effects"}, {"measurement": "WT LNCaP cell proliferation", "setting": "LNCaP WT cells", "value": "significant decrease in WT LNCaP cell proliferation"}, {"measurement": "WT LNCaP cell proliferation", "setting": "LNCaP WT cells; listed as Enzalutamide", "value": "significant decrease in WT LNCaP cell proliferation at all concentrations tested"}, {"measurement": "P1 LNCaP growth vs DMSO control", "setting": "[1]; enzalutamide, higher concentrations up to 30 μM", "value": "significantly enhanced growth; also recorded: increased growth at higher concentrations"}, {"measurement": "P1 LNCaP proliferation", "setting": "[1]; enzalutamide, increasing doses 0-30 μM", "value": "minimal reductions in cell proliferation"}, {"measurement": "resistance to enzalutamide upon PDE4D7 knockdown", "setting": "[1]; overall conclusion, 0-30 μM", "value": "confers resistance to anti-androgens such as enzalutamide"}, {"measurement": "sensitivity to enzalutamide upon PDE4D7 re-expression", "setting": "P1-TET4D7 LNCaP cells", "value": "restored sensitivity to enzalutamide; also recorded: rescued upon PDE4D7 re-expression"}]}, {"molecule": "CN(C)C(=N)N=C(N)N", "note": "[metformin, Metformin]", "values": [{"measurement": "growth of WT cells", "setting": "LNCaP WT cells; metformin, all concentrations (0-25 μM)", "value": "significantly reducing growth of WT cells at all concentrations"}, {"measurement": "growth inhibition independent of PDE4D7 expression, WT", "setting": "LNCaP WT cells; summary statement, WT vs P1", "value": "reduce tumor growth independent of PDE4D7 expression levels; also recorded: inhibit LNCaP cell growth irrespective of PDE4D7 expression status"}, {"measurement": "growth inhibition of P1 cells", "setting": "[1]; metformin, only at highest concentrations tested (0-25 μM)", "value": "significant inhibition was only observed in P1 cells at highest concentrations tested"}, {"measurement": "growth inhibition independent of PDE4D7 expression, P1", "setting": "[1]; summary statement, WT vs P1", "value": "reduce tumor growth independent of PDE4D7 expression levels; also recorded: inhibit LNCaP cell growth irrespective of PDE4D7 expression status"}, {"measurement": "overall survival/time to recurrence in PCa", "setting": "PCa", "value": "enhance overall survival/time to recurrence"}, {"measurement": "treatment/reduction of PCa tumours", "setting": "PCa", "value": "no evidence of it treating/reducing the PCa tumours itself"}, {"measurement": "cAMP production", "setting": "cAMP production", "value": "decrease CAMP production"}]}]}
